In paper PMC8774285, “In Silico, In Vitro and In Vivo Analysis of Tanshinone IIA and Cryptotanshinone from Salvia miltiorrhiza as Modulators of Cyclooxygenase-2/mPGES-1/Endothelial Prostaglandin EP3 Pathway” (Biomolecules, 2022) one finds IC50 data, which are given here for one compound.

What all share (type): biochemical
The target in one experiment is T1, cyclooxygenase-2 (COX-2) (Homo sapiens, UniProt P35354).
T1 construct: gene PTGS2; recombinant human COX-2
T1 sequence (P35354 18-604): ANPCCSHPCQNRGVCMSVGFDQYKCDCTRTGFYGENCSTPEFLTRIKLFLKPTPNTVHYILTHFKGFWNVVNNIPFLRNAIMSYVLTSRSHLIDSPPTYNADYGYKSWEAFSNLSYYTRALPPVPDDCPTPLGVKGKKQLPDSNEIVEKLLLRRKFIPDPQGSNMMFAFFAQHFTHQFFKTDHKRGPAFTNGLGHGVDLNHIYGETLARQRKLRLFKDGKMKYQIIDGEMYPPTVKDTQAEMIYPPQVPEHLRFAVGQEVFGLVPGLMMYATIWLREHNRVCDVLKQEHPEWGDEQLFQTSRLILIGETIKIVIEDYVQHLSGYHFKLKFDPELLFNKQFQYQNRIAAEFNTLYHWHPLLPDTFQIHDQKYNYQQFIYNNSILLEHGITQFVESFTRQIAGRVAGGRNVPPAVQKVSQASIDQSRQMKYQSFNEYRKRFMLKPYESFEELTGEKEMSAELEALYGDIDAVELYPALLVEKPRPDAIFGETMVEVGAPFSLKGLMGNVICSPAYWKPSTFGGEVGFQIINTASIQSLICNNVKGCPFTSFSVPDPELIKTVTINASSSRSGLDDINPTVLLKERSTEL
Nature of the experiment: isolated COX-2 activity assay ([…] AA, 12-HHT formation); […] residual activity at […].

For the next experiment, the target named is T2, 5-lipoxygenase (5-LO) (Homo sapiens, UniProt P09917).
T2 construct: gene ALOX5; recombinant, expressed in E. coli BL21 (DE3) with pT3-5-LO, purified on ATP-agarose
T2 sequence (P09917 1-674): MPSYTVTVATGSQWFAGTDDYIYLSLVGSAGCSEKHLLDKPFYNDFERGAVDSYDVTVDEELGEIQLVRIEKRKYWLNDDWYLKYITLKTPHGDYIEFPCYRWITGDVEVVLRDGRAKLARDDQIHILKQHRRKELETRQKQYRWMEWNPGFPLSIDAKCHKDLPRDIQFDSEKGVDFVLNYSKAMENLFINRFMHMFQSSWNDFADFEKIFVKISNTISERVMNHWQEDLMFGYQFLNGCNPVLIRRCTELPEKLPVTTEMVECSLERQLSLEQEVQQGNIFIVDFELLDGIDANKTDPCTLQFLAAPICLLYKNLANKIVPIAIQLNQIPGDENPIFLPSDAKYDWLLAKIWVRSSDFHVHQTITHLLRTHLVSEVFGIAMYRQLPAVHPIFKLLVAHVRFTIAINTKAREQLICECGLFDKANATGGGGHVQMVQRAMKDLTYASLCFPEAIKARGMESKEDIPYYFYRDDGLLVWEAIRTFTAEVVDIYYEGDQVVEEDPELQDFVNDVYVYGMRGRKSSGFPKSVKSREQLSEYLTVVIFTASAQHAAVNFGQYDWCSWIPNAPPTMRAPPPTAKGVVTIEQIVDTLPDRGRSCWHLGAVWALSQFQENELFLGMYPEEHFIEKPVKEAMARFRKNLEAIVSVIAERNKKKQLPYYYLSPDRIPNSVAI
Nature of the experiment: isolated 5-LO activity assay ([…] AA, products by RP-HPLC).

For a further experiment, the target named is T3, cyclooxygenase-1 (COX-1) (Ovis aries, UniProt P05979).
T3 construct: gene PTGS1; purified ovine COX-1
T3 sequence (P05979 25-600): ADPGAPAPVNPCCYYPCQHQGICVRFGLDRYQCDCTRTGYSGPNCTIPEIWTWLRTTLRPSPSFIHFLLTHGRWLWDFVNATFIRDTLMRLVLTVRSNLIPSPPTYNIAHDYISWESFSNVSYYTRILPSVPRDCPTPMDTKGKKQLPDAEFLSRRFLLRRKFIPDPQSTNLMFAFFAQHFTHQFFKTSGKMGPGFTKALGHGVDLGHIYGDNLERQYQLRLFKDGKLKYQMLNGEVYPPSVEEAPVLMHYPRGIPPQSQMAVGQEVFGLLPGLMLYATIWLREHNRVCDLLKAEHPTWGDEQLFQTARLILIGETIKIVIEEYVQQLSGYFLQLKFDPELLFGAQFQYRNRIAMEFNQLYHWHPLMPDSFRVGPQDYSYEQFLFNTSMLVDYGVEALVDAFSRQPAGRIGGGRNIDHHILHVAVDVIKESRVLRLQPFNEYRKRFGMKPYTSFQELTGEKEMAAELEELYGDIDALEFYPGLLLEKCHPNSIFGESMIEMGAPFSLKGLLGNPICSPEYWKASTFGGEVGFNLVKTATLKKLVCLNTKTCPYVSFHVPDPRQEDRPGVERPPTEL
Nature of the experiment: isolated COX-1 activity assay ([…] AA, 12-HHT formation); […] residual activity at […].

`C[C@H]1COC2=C1C(=O)C(=O)c1c2ccc2c1CCCC2(C)C` [CRY, cryptotanshinone]: the half-inhibitory concentration (IC50) (in general, the concentration that inhibits the measured activity by half) was over 30 µM against cyclooxygenase-2 (COX-2), 7.1 µM at 5-lipoxygenase (5-LO) and over 30 µM on cyclooxygenase-1 (COX-1).
